Results taken from PubChem BioAssay AID1918999 (Molecular Pharmacology Branch, DTP, NCI, 2023).
Several values for one entry are separate records, joined by “and”; a condition that tells them apart may be missing. Equal entries are not always repeated.

System: 556581-035-R-J1-PDC complex spheroid growth
Test: Anticancer human tumor 556581-035-R-J1-PDC patient-derived ovarian carcinoma cell line growth inhibition [AhR]
Conditions: for viability, T/C: stronger effect = lower value; active means viability on the fitted dose curve at most 10% of control; inactive means the rest
Outline: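 Agents were dosed in half-log steps down from roughly clinical Cmax, or from 10 microM where Cmax was unknown, alone and with AhR antagonists. Read-out: percent test/control growth of tumor spheroids containing HUVEC and MSC stromal cells.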

[1] = curve of first compound, second compound 0.1 µM
[2] = curve of first compound, second compound 0.316 µM
[3] = curve of first compound, second compound 1 µM
[4] = curve of first compound, second compound 3.16 µM
[5] = curve of first compound, second compound 10 µM
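Wherever viability, T/C is given: compound exposure lasted 7 days; 100% = DMSO vehicle control growth.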

O=C(C=Cn1cnc(-c2cc(C(F)(F)F)cc(C(F)(F)F)c2)n1)NNc1cnccn1 + CC(CO)NC(=O)c1cc(-c2ccc(Cl)cc2)nn(-c2cnn(C)c2)c1=O
inactive: viability, T/C (second compound 0.1 µM, first compound 0.00949 µM) 84% | viability, T/C (second compound 0.1 µM, first compound 0.03 µM) 84.2% | viability, T/C (second compound 0.1 µM, first compound 0.0949 µM) 87.6% | viability, T/C (second compound 0.1 µM, first compound 0.3 µM) 69.3% | viability, T/C (second compound 0.1 µM, first compound 0.949 µM) 66.9% | viability, T/C (second compound 0.1 µM, first compound 3 µM) 62.5% | viability, T/C (second compound 0.316 µM, first compound 0.00949 µM) 87.3% | viability, T/C (second compound 0.316 µM, first compound 0.03 µM) 93% | viability, T/C (second compound 0.316 µM, first compound 0.0949 µM) 81% | viability, T/C (second compound 0.316 µM, first compound 0.3 µM) 76% | viability, T/C (second compound 0.316 µM, first compound 0.949 µM) 71.2% | viability, T/C (second compound 0.316 µM, first compound 3 µM) 66% | viability, T/C (second compound 1 µM, first compound 0.00949 µM) 88.7% | viability, T/C (second compound 1 µM, first compound 0.03 µM) 103% | viability, T/C (second compound 1 µM, first compound 0.0949 µM) 84% | viability, T/C (second compound 1 µM, first compound 0.3 µM) 73.8% | viability, T/C (second compound 1 µM, first compound 0.949 µM) 68.2% | viability, T/C (second compound 1 µM, first compound 3 µM) 65.8% | viability, T/C (second compound 3.16 µM, first compound 0.00949 µM) 98.2% | viability, T/C (second compound 3.16 µM, first compound 0.03 µM) 81.4% | viability, T/C (second compound 3.16 µM, first compound 0.0949 µM) 80.5% | viability, T/C (second compound 3.16 µM, first compound 0.3 µM) 70% | viability, T/C (second compound 3.16 µM, first compound 0.949 µM) 62.7% | viability, T/C (second compound 3.16 µM, first compound 3 µM) 63% | viability, T/C (second compound 10 µM, first compound 0.00949 µM) 93.1% | viability, T/C (second compound 10 µM, first compound 0.03 µM) 80% | viability, T/C (second compound 10 µM, first compound 0.0949 µM) 75.9% | viability, T/C (second compound 10 µM, first compound 0.3 µM) 77.9% | viability, T/C (second compound 10 µM, first compound 0.949 µM) 72.7% | viability, T/C (second compound 10 µM, first compound 3 µM) 72.7%
> 3 µM: IC50 [1] | IC50 [2] | IC50 [3] | IC50 [4] | IC50 [5]

Nc1ncn(C2CC(O)C(CO)O2)c(=O)n1 (stereo not given) + Cc1ccccc1N=Nc1ccc(NC(=O)c2ccnn2C)c(C)c1
> 1 µM: IC50 [1] | IC50 [2] | IC50 [3] | IC50 [4] | IC50 [5]
inactive: viability, T/C (second compound 0.1 µM, first compound 0.00316 µM) 95.9% | viability, T/C (second compound 0.1 µM, first compound 0.01 µM) 95.5% | viability, T/C (second compound 0.1 µM, first compound 0.0316 µM) 90.4% | viability, T/C (second compound 0.1 µM, first compound 0.1 µM) 84.7% | viability, T/C (second compound 0.1 µM, first compound 0.316 µM) 85.1% | viability, T/C (second compound 0.1 µM, first compound 1 µM) 77.4% | viability, T/C (second compound 0.316 µM, first compound 0.00316 µM) 108% | viability, T/C (second compound 0.316 µM, first compound 0.01 µM) 98.8% | viability, T/C (second compound 0.316 µM, first compound 0.0316 µM) 85.9% | viability, T/C (second compound 0.316 µM, first compound 0.1 µM) 89.6% | viability, T/C (second compound 0.316 µM, first compound 0.316 µM) 78.7% | viability, T/C (second compound 0.316 µM, first compound 1 µM) 74.1% | viability, T/C (second compound 1 µM, first compound 0.00316 µM) 98.5% | viability, T/C (second compound 1 µM, first compound 0.01 µM) 97.7% | viability, T/C (second compound 1 µM, first compound 0.0316 µM) 95.1% | viability, T/C (second compound 1 µM, first compound 0.1 µM) 92.3% | viability, T/C (second compound 1 µM, first compound 0.316 µM) 89.2% | viability, T/C (second compound 1 µM, first compound 1 µM) 78.1% | viability, T/C (second compound 3.16 µM, first compound 0.00316 µM) 86.7% | viability, T/C (second compound 3.16 µM, first compound 0.01 µM) 81.6% | viability, T/C (second compound 3.16 µM, first compound 0.0316 µM) 81% | viability, T/C (second compound 3.16 µM, first compound 0.1 µM) 79.6% | viability, T/C (second compound 3.16 µM, first compound 0.316 µM) 73% | viability, T/C (second compound 3.16 µM, first compound 1 µM) 82.8% | viability, T/C (second compound 10 µM, first compound 0.00316 µM) 85.4% | viability, T/C (second compound 10 µM, first compound 0.01 µM) 77.9% | viability, T/C (second compound 10 µM, first compound 0.0316 µM) 71.2% | viability, T/C (second compound 10 µM, first compound 0.1 µM) 72.4% | viability, T/C (second compound 10 µM, first compound 0.316 µM) 77.6% | viability, T/C (second compound 10 µM, first compound 1 µM) 75.3%

COc1ccc([C@@H](O)c2cc(-c3ncnc4cc(N5CCOCC5)ccc34)c(F)cc2Cl)nn1
inactive: viability, T/C (compound 0.0316 µM) 96.5% and 101% and 108% | viability, T/C (compound 0.1 µM) 106% and 98.1% and 104% | viability, T/C (compound 0.316 µM) 88.7% and 93.8% and 94.7% | viability, T/C (compound 1 µM) 76.4% and 70% and 71.3% | viability, T/C (compound 3.16 µM) 58.4% and 59.2% and 52.1% | viability, T/C (compound 10 µM) 45.5% and 37.5% and 38.9%
6.68 µM and 4.7 µM and 3.46 µM: IC50 (curve of compound)

Cc1cncc(-c2nc(NCCc3c[nH]c4ccccc34)c3ncn(C(C)C)c3n2)c1
> 10 µM: IC50 (compound alone, run of 06/06/2022)
inactive: viability, T/C (compound 0.316 µM) 103% [middle of 20 runs] | viability, T/C (compound 10 µM) 83.6% [middle of 20 runs]
